Drawing on ChEMBL document CHEMBL1145527, “Design, synthesis, and antiproliferative and CDK2-cyclin a inhibitory activity of novel flavopiridol analogues” (Bioorg Med Chem, 2007), this text covers IC50 for 20 compounds.

Test [1] has as its system MCF7. The test is described as follows: Antiproliferative activity against MCF7 cells. Type of test: functional, cell-based. The following applies: Homo sapiens.
The target in test [2] is Cyclin-dependent kinase 2/cyclin A (Homo sapiens, UniProt P24941). Description: Inhibition of CDK2/Cyclin A. The class given is protein-complex assay.
Test [3] is described as follows: Antiproliferative activity against ID8 cells. The class given is functional, cell-based. The following applies: Mus musculus.

Each structure is given as a SMILES string.

The IC50 is the concentration needed to halve the response being measured. A higher IC50 goes with a need for much substance. In the case of `CCC(C)OC(=O)Nc1ccc(O)c2c(=O)cc(-c3ccccc3Cl)oc12` (stereo not given), the results for the IC50 in test [1], in test [2] and in test [3] were 30 µM, 417 µM and 18 µM, respectively.
As for `COc1ccc(C(=O)Nc2ccc(O)c3c(=O)cc(-c4ccccc4Cl)oc23)cc1`, the IC50 in test [1] worked out at 3.5 µM; in test [2] it was 383 µM; in test [3], 5 µM.
Regarding `Cc1ccc(C(=O)Nc2c(O)cc(O)c3c(=O)cc(-c4ccccc4Cl)oc23)cc1`, the 50% inhibitory concentration (IC50) stood at 9.7 µM in test [1] and 90 µM in test [2].
As for `CN1CC[C@H](c2c(O)cc(O)c3c(=O)cc(-c4ccccc4Cl)oc23)[C@H](O)C1` [ALVOCIDIB], the IC50 in test [1] turned out to be 0.026 µM; in test [3] it was 0.007 µM.
Consider `O=C(Nc1ccc(O)c2c(=O)cc(-c3ccccc3Cl)oc12)c1ccc(Cl)cc1`, for which the IC50 in test [1] stood at 4.6 µM; in test [2], 417 µM; in test [3], 5.5 µM.
For `O=C(Nc1ccc(O)c2c(=O)cc(-c3ccccc3Cl)oc12)c1ccccc1`, the IC50 in test [1] was 7.1 µM; in test [2], 417 µM; in test [3] it was 13 µM.
On to `C[C@@H](NC(=O)OC(C)(C)C)C(=O)Nc1ccc(O)c2c(=O)cc(-c3ccccc3Cl)oc12`, for which the IC50 in test [1] was 5.5 µM; in test [3], 104 µM.
Take `CC(C)C[C@@H](NC(=O)OC(C)(C)C)C(=O)Nc1ccc(O)c2c(=O)cc(-c3ccccc3Cl)oc12`: the IC50 in test [2] worked out at 417 µM; in test [3], 17 µM.
With `C[C@H](NC(=O)OC(C)(C)C)C(=O)Nc1ccc(O)c2c(=O)cc(-c3ccccc3Cl)oc12`, the half-maximal inhibitory concentration (IC50) was determined as 5.5 µM in test [1], 417 µM in test [2] and 9.8 µM in test [3].
As to `CSCC[C@@H](NC(=O)OC(C)(C)C)C(=O)Nc1ccc(O)c2c(=O)cc(-c3ccccc3Cl)oc12`, the 50% inhibitory concentration (IC50) was determined as 2.8 µM in test [1] and 13 µM in test [3].
On the same counts, the results for `Cc1ccc(C(=O)Nc2ccc(O)c3c(=O)cc(-c4ccccc4Cl)oc23)cc1` are 10 µM and 16 µM.
Turning to `COc1ccc(C(=O)Nc2c(O)cc(O)c3c(=O)cc(-c4ccccc4Cl)oc23)cc1`, the IC50 was determined as 13 µM in test [1] and 54 µM in test [2].
On to `CC(C)(C)OC(=O)N[C@H](Cc1ccccc1)C(=O)Nc1ccc(O)c2c(=O)cc(-c3ccccc3Cl)oc12`, for which the IC50 was 4.5 µM in test [1], 417 µM in test [2] and 12 µM in test [3].
With `O=C(Nc1ccc(O)c2c(=O)cc(-c3ccccc3Cl)oc12)c1ccc(Cl)c(Cl)c1`, the results for the IC50 in test [1], in test [2] and in test [3] were 15 µM, 217 µM and 13 µM, respectively.
For `O=c1cc(-c2ccccc2Cl)oc2c(N3CCOCC3)ccc(O)c12`, the IC50 was 20 µM in test [1], 417 µM in test [2] and 7.9 µM in test [3].
On the same counts, the results for `CC(C)(C)OC(=O)N[C@@H](Cc1ccccc1)C(=O)Nc1ccc(O)c2c(=O)cc(-c3ccccc3Cl)oc12` are 7.1 µM, 417 µM and 5.3 µM.
In the case of `O=C(Nc1c(O)cc(O)c2c(=O)cc(-c3ccccc3Cl)oc12)c1ccccc1`, the IC50 in test [1] is 8.5 µM; in test [2], 91 µM.
With `CC(C)C[C@H](NC(=O)OC(C)(C)C)C(=O)Nc1ccc(O)c2c(=O)cc(-c3ccccc3Cl)oc12`, the IC50 in test [1] turned out to be 4 µM; in test [2], 417 µM; in test [3] it was 5.1 µM.
For `CSCC[C@H](NC(=O)OC(C)(C)C)C(=O)Nc1ccc(O)c2c(=O)cc(-c3ccccc3Cl)oc12`, the IC50 in test [1] came out at 20 µM; in test [3], 6.2 µM.
`O=C(Nc1c(O)cc(O)c2c(=O)cc(-c3ccccc3Cl)oc12)c1ccc(Cl)cc1`: the values for the IC50 in test [1] and in test [2] were 13 µM and 339 µM, respectively.
